Read-outs that look alike come from different tables or passages of the source.
Tests used:
[1] = system: T.b. brucei (strain 427) bloodstream form parasites; assay: Trypanosoma brucei assay, dose–response (this study); assay type: cell-based; settings: for IC50: Trypanosoma brucei, read-out: T. brucei brucei IC50 (μM) This study
HeLa cells = assay: HeLa cell assay (cytotoxicity); assay type: cell-based; settings: Homo sapiens
Protocol: HeLa cells were cultured in DMEM medium supplemented with 10% fetal bovine serum and antibiotics (penicillin/streptomycin/amphotericin B) at 37 °C in a 5% CO2 incubator. On the day prior to compound addition, cells were plated in 96-well plates at 2 × 10^4 cells per well. Compounds were added to the cells in 3-fold serial dilutions and incubation at 37 °C in a 5% CO2 incubator continued for 48 hours. Twenty μl resazurin reagent (0.5 mM resazurin in phosphate-buffered saline) was added to each well and, after a 2-hour incubation, fluorescence (Exc560/Em590) was measured in a plate reader. Percentage cell viability in drug-treated wells was calculated from the fluorescent readings obtained relative to those in wells containing control, untreated cells. Plots of % cell viability vs. log[compound] were used to determine IC50 values by non-linear regression analysis using GraphPad Prism.

T.b. brucei [2] = system: T.b. brucei; design: method as in https://www.pathogenbox.org/; settings: ref https://www.pathogenbox.org/, cited from earlier work; for IC50: Table 1, kinetoplastid category, read-out: T. brucei brucei IC50 (μM) Pathogen Box
[3] = system: T.b. brucei (strain 427) bloodstream form parasites; assay: T.b. brucei single concentration screen (10 μM); settings: for viability at 10 µM: Trypanosoma brucei, read-out: T.b.brucei % viability (10 µM); for T.b.brucei % viability (10 µM): single concentration 10 µM, % parasite viability relative to non-treated parasites
T.b. brucei [4] = system: T.b. brucei; design: method as in PMID 28674055; settings: cited from earlier work; for IC50: Table 1, kinetoplastid category of the Pathogen Box, read-out: T. brucei brucei IC50 (μM) Duffy et al.
[5] = Table 1, kinetoplastid category, 48 hours at 37 °C, resazurin
[6] = Table 1, HeLa cells, 48 hours, resazurin, read-out: HeLa IC50

Row | Compound | IC50 [1, 5] [µM] | IC50 (HeLa cells; [6]) [µM] | IC50 (T.b. brucei [2]) [µM] | viability at 10 µM [3] [%] | other results
1 | O=C(Nc1ccc(F)c(-c2nc3cc(-c4ccccc4)cnc3[nH]2)c1)N1CCCC1 [Compound 2, FC1=C(C=C(NC(=O)N2CCCC2)C=C1)C1=NC2=CC(=CN=C2N1)C1=CC=CC=C1] | 0.049 | 0.8 | < 0.13 | 2 | –
2 | O=C(Nc1ccc2c(c1)B(O)OC2)c1ccccc1C(F)(F)F [Compound 3, OB1OCc2ccc(NC(=O)c3ccccc3C(F)(F)F)cc12] | 0.14 | > 25 | 0.15 | 0 | –
3 | CCc1ccccc1-n1c(C)cn2c3c(=O)n(C(C(=O)OC)C(C)C)c(=O)n(C)c3nc12 (stereo not shown) [Compound 4, CCc1ccccc1n2c(C)cn3c4C(=O)N(C(C(C)C)C(=O)OC)C(=O)N(C)c4nc23] | 0.03 | > 25 | < 0.13 | 0 | –
4 | Cc1ncc(-c2ccnc(Nc3ccc(S(C)(=O)=O)cc3)n2)n1C(C)C [Compound 6, CC(C)n1c(C)ncc1c2ccnc(Nc3ccc(cc3)S(=O)(=O)C)n2] | 0.084 | 1.2 | 0.26 | 2.2 | –
5 | CNC(=O)c1nn(C)c2c1C(C)(C)Cc1cnc(Nc3ccc(N4CCN(C)CC4)cc3)nc1-2 [Compound 7, CNC(=O)c1nn(C)c2c3nc(Nc4ccc(cc4)N5CCN(C)CC5)ncc3CC(C)(C)c12] | 0.048 | 4 | < 0.13 | 0.62 | –
6 | O=C(NCc1nnc2n1CCCCC2)c1ccc(-c2ccc(F)cc2)o1 [Compound 8, Fc1ccc(cc1)c2oc(cc2)C(=O)NCc3nnc4CCCCCn34] | 0.11 | > 25 | 0.1 | 1.3 | –
7 | NCCN(C(=O)c1ccc(Cl)cc1Cl)c1ccc(OCc2ccc(Cl)cc2)cc1 [Compound 9, NCCN(C(=O)c1ccc(Cl)cc1Cl)c2ccc(OCc3ccc(Cl)cc3)cc2] | 0.49 | 7.5 | < 0.13 | 4 | –
8 | Cc1ccc(S(=O)(=O)Nc2ccc(CN3CCN(C(=O)c4cccc(C#N)c4)CC3)cc2)cc1 [Compound 11, O=C(N1CCN(CC2=CC=C(NS(=O)(C3=CC=C(C)C=C3)=O)C=C2)CC1)C4=CC(C#N)=CC=C4] | 0.12 | > 25 | 0.14 | 6.6 | –
9 | COc1ccc(C(=N)N)cc1-c1cn(-c2ccc(C(=N)N)cc2)nn1 [Compound 12, COc1ccc(cc1c2cn(nn2)c3ccc(cc3)C(=N)N)C(=N)N] | 0.54 | > 25 | 0.25 | 9 | –
10 | O=C(NCCc1ccn(-c2ccccc2)n1)C1CCCCC1 [Compound 13, O=C(NCCc1ccn(n1)c2ccccc2)C3CCCCC3] | 0.21 | > 25 | 0.15 | 2 | –
11 | CS(=O)(=O)c1ccccc1C(=O)N(Cc1ccccc1)c1ccccc1 [Compound 14, CS(=O)(=O)c1ccccc1C(=O)N(Cc2ccccc2)c3ccccc3] | 1.2 | > 25 | 0.56 | 18 | –
12 | COc1ccc(C2=NN(C3CCCCCC3)C(=O)[C@@H]3CC=CC[C@H]23)cc1OCCCCOc1ccc(-c2nnn[nH]2)cc1 [Compound 15, COC1=C(OCCCCOC2=CC=C(C3=NNN=N3)C=C2)C=C(C([C@@H]4[C@H]5CC=CC4)=NN(C6CCCCCC6)C5=O)C=C1] | – | – | 0.02 | 6 | IC50 ([1]; 48 h): 0.12 µM; IC50 (HeLa cells; HeLa, 48 h, read-out: HeLa IC50 (μM)): > 25 µM
13 | N=C(N)Nc1ccc(-c2ccc(-c3ccc(N=C(N)N)c(Cl)c3)o2)cc1Cl [Compound 16, NC(=N)Nc1ccc(cc1Cl)c2oc(cc2)c3ccc(N=C(N)N)c(Cl)c3] | 0.65 | 17 | 0.6 | 1.2 | –
14 | CCC(=O)Nc1ccccc1C(=O)Nc1ccccn1 [Compound 17, CCC(=O)Nc1ccccc1C(=O)Nc2ccccn2] | 0.38 | > 25 | 2.46 | 7 | –
15 | COc1ccc(S(=O)(=O)Nc2ccc(CN3CCN(C(=O)c4cccc(C#N)c4)CC3)cc2)cc1 [Compound 18, O=C(N1CCN(CC2=CC=C(NS(=O)(C3=CC=C(OC)C=C3)=O)C=C2)CC1)C4=CC(C#N)=CC=C4] | 0.44 | > 25 | 0.5 | 6.5 | –
16 | CCCCN(CCCC)c1c(C#N)cc(S(=O)(=O)Nc2ccccc2)cc1C#N [Compound 19, CCCCN(CCCC)c1c(cc(cc1C#N)S(=O)(=O)Nc2ccccc2)C#N] | 1.3 | > 25 | 0.26 | 6 | –
17 | Cc1noc(C)c1COc1cccc(C(=O)N=c2[nH]cccc2C)c1 [Compound 20, Cc1onc(C)c1COc2cccc(c2)C(=O)Nc3ncccc3C] | 0.62 | > 25 | 2.07 | 7 | –
18 | CO[C@@H](C(=O)N1Cc2[nH]nc(NC(=O)c3ccc(N4CCN(C)CC4)cc3)c2C1)c1ccccc1 [Compound 21, CO[C@@H](C(=O)N1Cc2[nH]nc(NC(=O)c3ccc(cc3)N4CCN(C)CC4)c2C1)c5ccccc5] | 0.3 | > 25 | 1.02 | 4.5 | –
19 | CNC(=O)C1Cc2ccccc2N1C(=O)Cc1ccc(F)cc1 (stereo not shown) [Compound 22, CNC(=O)C1Cc2ccccc2N1C(=O)Cc3ccc(F)cc3] | 0.71 | > 25 | 0.49 | 7 | –
20 | c1ccc(Oc2ccc(-c3cc(C4CCOCC4)[nH]n3)cc2)cc1 [Compound 23, C1CC(CCO1)c2cc(n[nH]2)c3ccc(Oc4ccccc4)cc3] | – | – | 7.58 | 82 | IC50 (T.b. brucei [4]): ≥ 1 µM; T.b.brucei % viability (10 µM) [3]: did not sufficiently reduce cell viability
21 | Cc1nn2c(=O)c3c([nH]c2c1-c1ccc(Cl)cc1)CCCC3 [Compound 24, Cc1nn2C(=O)C3=C(CCCC3)Nc2c1c4ccc(Cl)cc4] | – | – | – | 19 | IC50 (T.b. brucei [4]): ≥ 1 µM; T.b. brucei activity in words, Pathogen Box (T.b. brucei [2]): sub-micromolar range; T.b.brucei % viability (10 µM) [3]: did not sufficiently reduce cell viability
22 | COc1ccc(C2=NN(C3CCCCCC3)C(=O)C2(C)C)cc1OCCCCOc1ccc(-c2nn[nH]n2)cc1 [Compound 25, COC1=C(OCCCCOC2=CC=C(C3=NNN=N3)C=C2)C=C(C4=NN(C5CCCCCC5)C(C4(C)C)=O)C=C1] | 1.7 | > 25 | 0.79 | 8.5 | –
23 | Cc1nn2c(O)c3c(nc2c1-c1ccc(F)cc1)CCCC3 [Compound 28, Cc1nn2c(O)c3CCCCc3nc2c1c4ccc(F)cc4] | 4.6 | > 25 | 1.94 | 12 | –
24 | CC1=Nc2ccc(Cl)cc2C(O)(c2ccc(C)cc2)N1CCN1CCCCC1 (stereo not shown) [Compound 29, CC1=Nc2ccc(Cl)cc2C(O)(N1CCN3CCCCC3)c4ccc(C)cc4] | 0.98 | 15 | 0.98 | 2 | –
25 | c1ccc(Oc2ccc(-c3cc(N4CCNCC4)[nH]n3)cc2)cc1 [Compound 30, C1CN(CCN1)c2cc(n[nH]2)c3ccc(Oc4ccccc4)cc3] | 2.3 | 11 | 0.99 | 0.3 | –
26 | CN1CCN(S(=O)(=O)c2ccc(-c3ccc4c(Nc5ncc(Cl)cn5)ccnc4c3)cc2)CC1 [Compound 31, CN1CCN(CC1)S(=O)(=O)c2ccc(cc2)c3ccc4c(Nc5ncc(Cl)cn5)ccnc4c3] | 2.2 | > 25 | 3.78 | 6.4 | –
27 | N=C(N)Nc1ccc(-c2ccc(-c3ccc(NC(=N)N)cc3Cl)o2)c(Cl)c1 [Compound 32, NC(=N)Nc1ccc(c(Cl)c1)c2oc(cc2)c3ccc(NC(=N)N)cc3Cl] | – | – | 1.03 | 17 | T.b.brucei % viability (10 µM) [3]: did not sufficiently reduce cell viability
28 | CCOC(=O)c1noc(N)c1-c1ccccc1 [Compound 34, CCOC(=O)c1noc(N)c1c2ccccc2] | 0.41 | > 25 | 1.22 | 12 | T.b. brucei inhibition in words, this study [1]: mid-nanomolar inhibitor; T.b. brucei activity in words, Pathogen Box (T.b. brucei [2]): low micromolar range
29 | O=C(Nc1ccccc1)c1ccc(-c2cc3ccncc3cc2OC2CCNCC2)s1 [Compound 51, O=C(Nc1ccccc1)c2ccc(s2)c3cc4ccncc4cc3OC5CCNCC5] | – | – | – | 1 | T.b. brucei inhibition in words, this study [1]: selectively inhibited T.b. brucei, albeit moderately; IC50 ([1]; Table 2, remaining Pathogen Box, 48 hours at 37 °C, resazurin): 1 µM; Selectivity index ([1]; calculated as IC50(HeLa)/IC50(T.bb)): 7.5; IC50 (HeLa cells; Table 2, HeLa cells, 48 hours, resazurin, read-out: HeLa IC50): 7.5 µM; T.b. brucei inhibition in words, Duffy et al. (T.b. brucei [4]): moderate inhibition
30 | O=C(Nc1ccc(C(F)(F)F)c(C(F)(F)F)c1)c1cc(Cl)ccc1O [Compound 66, Oc1ccc(Cl)cc1C(=O)Nc2ccc(c(c2)C(F)(F)F)C(F)(F)F] | – | – | – | 42 | T.b. brucei inhibition in words, Duffy et al. (T.b. brucei [4]): sub-micromolar inhibitor
